Like-named read-outs stand apart in the source and are kept apart here.
Key:
[1] = system: Vero cells
[2] = system: ZIKV-RLuc (Cambodian strain FSS13025); experiment: microbe, parasite or virus in culture; format: cell-based, Zika virus
[3] = Zika virus, Vero, read-out: Log AC50 (M) (converted)

Row | SMILES | AC50 [1] | Log AC50 (M) [1] | CC-v2 (curve class classification v2 of the dose response curve) [2] | Efficacy (difference between neutral response and maximum compound response) [2] | Max Resp (difference between neutral response and compound response for highest compound concentration) [2] | AC50 ([2]; Zika virus, Vero) | AC50 [2, 3] | AC50 [2] | Log AC50 (M) [2] | Efficacy (difference between neutral response and maximum compound response) [1] | Max Resp (difference between neutral response and compound response for highest compound concentration) [1] | Curve class [2] | Efficacy [2] | Emax ([2]; Zika virus, Vero, read-out: Max response)
1 | CC1(C)CCC(C)(C)c2cc(NC(=O)c3ccc(C(=O)O)cc3)ccc21 [NCGC00181111-01] | 36.9 µM | -4.4327 M | -3 | -105.549 | -80.478 | 3.69e-05 M | 3.69e-05 M |  |  |  |  |  |  | 
2 | CC1(C)CCC(C)(C)c2cc(NC(=O)c3ccc(C(=O)O)cc3)ccc21 [NCGC00181111-02] | 36.9 µM | -4.4327 M | -2.1 | -104.922 | -87.275 |  |  | 3.69e-05 M | -4.4327 |  |  |  |  | 
3 | Cc1nc(Nc2ncc(C(=O)Nc3c(C)cccc3Cl)s2)cc(N2CCN(CCO)CC2)n1 [NCGC00181129-05] |  | -7.0699 M | -1.1 | -120.53 | -95.603 | 8.51e-08 M | 8.51e-08 M |  |  |  |  |  |  | 
4 | COC(=O)[C@]12CCC(C)(C)C[C@H]1[C@H]1C(=O)C=C3[C@@]4(C)C=C(C#N)C(=O)C(C)(C)[C@@H]4CC[C@@]3(C)[C@]1(C)CC2 [NCGC00186460-02] | 0.369 µM | -6.4327 M | -1.1 | -99.409 | -99.593 | 3.69e-07 M | 3.69e-07 M |  |  |  |  |  |  | 
5 | NC1(c2ccc(-c3nc4ccn5c(=O)[nH]nc5c4cc3-c3ccccc3)cc2)CCC1 [NCGC00186465-01] | 18.5 µM | -4.7327 M | -2.1 | -117.339 | -99.979 | 1.85e-05 M | 1.85e-05 M |  |  |  |  |  |  | 
6 | NC1(c2ccc(-c3nc4ccn5c(=O)[nH]nc5c4cc3-c3ccccc3)cc2)CCC1 [NCGC00186465-04] |  | -4.6827 M | -2.1 | -108.058 | -98.999 |  |  | 2.08e-05 M | -4.6827 |  |  |  |  | 
7 | C=CC(=O)N1CCC[C@@H](n2nc(-c3ccc(Oc4ccccc4)cc3)c3c(N)ncnc32)C1 [NCGC00187912-02] | 9.28 µM | -5.0327 M |  | -91.422 | -83.345 | 9.28e-06 M | 9.27e-06 M |  |  |  |  |  |  | 
8 | O=C(NCc1ccccc1)c1csc(Nc2ccncn2)n1 [NCGC00187983-01] | 14.7 µM | -4.8327 M | -2.1 | -99.244 | -100.568 | 1.47e-05 M | 1.47e-05 M |  |  |  |  |  |  | 
9 | CC(NCc1ccc2c(c1)[nH]/c(=N\C(=O)c1ccc(-c3cn[nH]c3)s1)n2CC(C)(C)O)C(C)(C)C (stereo not drawn) [NCGC00188382-05] | 1.47 µM | -5.8327 M | -1.1 | -97.056 | -99.599 | 1.47e-06 M | 1.47e-06 M |  |  |  |  |  |  | 
10 | ClC1=C(Cl)[C@]2(Cl)[C@@H]3[C@@H]4C[C@@H]([C@H]5O[C@@H]45)[C@@H]3[C@@]1(Cl)C2(Cl)Cl [NCGC00244579-01] | 75.9 µM | -4.1199 M | -3 | -117.983 | -96.11 | 7.59e-05 M | 7.59e-05 M |  |  |  |  |  |  | 
11 | CC(=O)O/N=C1\C(=O)N(Cc2cc(Cl)ccc2Cl)c2ccc(Cl)cc21 [NCGC00247668-01] | 16.5 µM | -4.7827 M | -2.1 | -136.639 | -99.757 | 1.65e-05 M | 1.65e-05 M |  |  |  |  |  |  | 
12 | N=c1c2c(-c3ccccc3)c(-c3ccccc3)n(Cc3ccccc3)c2ncn1C1CCC(O)CC1 (stereo not drawn) [NCGC00247785-05] | 4.96 µM | -5.3045 M | -1.1 | -97.244 | -99.645 | 4.96e-06 M | 4.96e-06 M |  |  |  |  |  |  | 
13 | COc1c(C)cnc(Cn2cnc3c(Cl)nc(N)nc32)c1C [NCGC00247877-01] | 0.185 µM | -6.7327 M | -1.2 | -34.341 | -31.198 | 1.85e-07 M | 1.85e-07 M |  |  |  |  |  |  | 
14 | CCNC(=O)c1noc(-c2cc(C(C)C)c(O)cc2O)c1-c1ccc(CN2CCOCC2)cc1 [NCGC00247878-08] | 36.9 µM | -4.4327 M | -2.3 | -68.402 | -90.15 | 3.69e-05 M | 3.69e-05 M |  |  |  |  |  |  | 
15 | CCNC(=O)c1cc2c(-c3cc(OCCN4CCCC4)c(Cl)cc3Cl)nc(N)nc2s1 [NCGC00247879-01] |  |  |  |  |  |  |  |  |  | -14.131 | 2.045 | 4 | -14.131 | 2.04%
16 | O=C(N[C@@H](c1ccccc1)[C@@H]1CCCCN1)c1cccc(C(F)(F)F)c1Cl [NCGC00247954-02] | 42.7 µM | -4.3699 M | -2.1 | -87.335 | -99.352 | 4.27e-05 M | 4.27e-05 M |  |  |  |  |  |  | 
17 | C1=C/COCc2cc(ccc2OCCN2CCCC2)Nc2nccc(n2)-c2cccc(c2)OCC/1 [NCGC00249346-02] | 1.17 µM | -5.9327 M | -1.1 | -91.692 | -99.088 | 1.17e-06 M | 1.17e-06 M |  |  |  |  |  |  | 
18 | CC(C)C[C@H](NC(=O)[C@H](CCc1ccccc1)NC(=O)CN1CCOCC1)C(=O)N[C@@H](Cc1ccccc1)C(=O)N[C@@H](CC(C)C)C(=O)[C@@]1(C)CO1 [NCGC00249613-01] | 2.33 µM | -5.6327 M | -1.1 | -103.056 | -99.72 | 2.33e-06 M | 2.33e-06 M |  |  |  |  |  |  | 
19 | CCN1CCN(CC(=O)Nc2ccc(-c3cccc4c(=O)cc(N5CCOCC5)oc34)c3sc4ccccc4c23)CC1 [NCGC00250387-03] | 23.3 µM | -4.6327 M | -2.4 | -68.382 | -59.211 | 2.33e-05 M | 2.33e-05 M |  |  |  |  |  |  | 
20 | CC(C)(C)OC(=O)Nc1ccc(-c2cc(C(=O)NCCCCCCC(=O)NO)no2)cc1 [NCGC00250390-04] | 2.09 µM | -5.6796 M | -2.2 | -83.763 | -67.554 | 2.09e-06 M | 2.09e-06 M |  |  |  |  |  |  | 
